# From article PMC7337905, “Nitrosative stress inhibits aminoacylation and editing activities of mitochondrial threonyl-tRNA synthetase by S-nitrosation” (Nucleic Acids Research, 2020)
# Positions count from the first letter of the chain named.
# What was measured:
# Type in all cases: biochemical
# hmtThrRS [1] = target: T1, hmtThrRS (Homo sapiens, UniProt Q9BW92, C185S/C506S/C603S); test: tRNA aminoacylation and posttransfer editing, […]tRNA TLC, after preincubation; settings: covalent (S-nitrosation); 1 mM GSNO preincubation; C409 mutant (only Cys409 kept of the four sites)
# T1 construct: gene TARS2; mature form Leu20-Phe718, 699 residues, pET28, Ni-NTA, E. coli BL21(DE3), no reducing agent, dimer
# T1 sequence (Q9BW92 20-718 C185S/C506S/C603S): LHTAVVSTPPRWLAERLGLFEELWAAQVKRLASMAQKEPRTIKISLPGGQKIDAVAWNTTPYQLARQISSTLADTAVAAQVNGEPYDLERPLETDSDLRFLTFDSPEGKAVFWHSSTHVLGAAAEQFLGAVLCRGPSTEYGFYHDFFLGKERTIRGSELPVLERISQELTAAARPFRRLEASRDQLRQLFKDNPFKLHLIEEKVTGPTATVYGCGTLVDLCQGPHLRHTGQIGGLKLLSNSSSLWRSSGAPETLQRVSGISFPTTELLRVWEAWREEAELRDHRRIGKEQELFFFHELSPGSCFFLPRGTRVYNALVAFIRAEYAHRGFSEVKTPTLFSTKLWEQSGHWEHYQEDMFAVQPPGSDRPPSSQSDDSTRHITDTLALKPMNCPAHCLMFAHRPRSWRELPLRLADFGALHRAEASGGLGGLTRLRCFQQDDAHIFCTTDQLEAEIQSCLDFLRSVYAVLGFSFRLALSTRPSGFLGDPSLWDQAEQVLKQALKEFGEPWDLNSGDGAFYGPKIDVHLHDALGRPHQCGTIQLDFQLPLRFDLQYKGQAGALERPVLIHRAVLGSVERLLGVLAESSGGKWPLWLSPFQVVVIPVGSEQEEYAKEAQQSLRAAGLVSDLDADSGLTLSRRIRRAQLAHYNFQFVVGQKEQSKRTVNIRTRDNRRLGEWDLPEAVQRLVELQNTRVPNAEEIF
# hmtThrRS [2] = target: T2, hmtThrRS (Homo sapiens, UniProt Q9BW92, C409S/C506S/C603S); test: as above; settings: covalent (S-nitrosation); 1 mM GSNO preincubation; C185 mutant (only Cys185 kept of the four sites)
# T2 construct: gene TARS2; mature form Leu20-Phe718, 699 residues, pET28, Ni-NTA, E. coli BL21(DE3), no reducing agent, dimer
# T2 sequence (Q9BW92 20-718 C409S/C506S/C603S): T1 sequence (Q9BW92 20-718 C185S/C506S/C603S) with S166C, C390S
# hmtThrRS [3] = target: T3, hmtThrRS (Homo sapiens, UniProt Q9BW92); test: tRNA aminoacylation and mischarging, […]tRNA TLC, after preincubation; IBP-MS of modified Cys; settings: covalent (S-nitrosation, reversed by DTT); 1 uM enzyme preincubated with 1 or 5 mM GSNO, 37 C; pH 7.5, 10 mM MgCl2
# T3 construct: gene TARS2; mature form Leu20-Phe718, 699 residues, pET28, Ni-NTA, E. coli BL21(DE3), no reducing agent, dimer
# T3 sequence (Q9BW92 20-718): T1 sequence (Q9BW92 20-718 C185S/C506S/C603S) with S166C, S487C, S584C
# hmtThrRS [4] = target: T4, hmtThrRS (Homo sapiens, UniProt Q9BW92, C185S/C409S/C603S); test: tRNA aminoacylation and posttransfer editing, […]tRNA TLC, after preincubation; settings: covalent (S-nitrosation); 1 mM GSNO preincubation; C506 mutant (only Cys506 kept of the four sites)
# T4 construct: gene TARS2; mature form Leu20-Phe718, 699 residues, pET28, Ni-NTA, E. coli BL21(DE3), no reducing agent, dimer
# T4 sequence (Q9BW92 20-718 C185S/C409S/C603S): T1 sequence (Q9BW92 20-718 C185S/C506S/C603S) with C390S, S487C
# hmtThrRS [5] = target: T5, hmtThrRS (Homo sapiens, UniProt Q9BW92, C185S/C409S/C506S); test: as above; settings: covalent (S-nitrosation); 1 mM GSNO preincubation; C603 mutant (only Cys603 kept of the four sites)
# T5 construct: gene TARS2; mature form Leu20-Phe718, 699 residues, pET28, Ni-NTA, E. coli BL21(DE3), no reducing agent, dimer
# T5 sequence (Q9BW92 20-718 C185S/C409S/C506S): T1 sequence (Q9BW92 20-718 C185S/C506S/C603S) with C390S, S584C
# hmtThrRS [6] = target: T3, hmtThrRS; test: tRNA mischarging, […]tRNA TLC; settings: noncognate; 100 mM Ser, E. coli tRNA-Thr, 10 mM MgCl2, pH 7.5
# hmtThrRS [7] = target: T3, hmtThrRS; test: tRNA aminoacylation, […]tRNA TLC; ATP-PPi exchange; settings: 1 mM Thr, 10 uM E. coli tRNA-Thr, 10 mM MgCl2, pH 7.5
# EcThrRS = target: T6, EcThrRS (Escherichia coli, UniProt P0A8M3); test: tRNA aminoacylation, […]tRNA TLC; settings: 1 mM Thr, E. coli tRNA-Thr, 10 mM MgCl2, pH 7.5
# T6 construct: gene thrS; purified enzyme, construct not described in main text
# T6 sequence (P0A8M3 whole entry): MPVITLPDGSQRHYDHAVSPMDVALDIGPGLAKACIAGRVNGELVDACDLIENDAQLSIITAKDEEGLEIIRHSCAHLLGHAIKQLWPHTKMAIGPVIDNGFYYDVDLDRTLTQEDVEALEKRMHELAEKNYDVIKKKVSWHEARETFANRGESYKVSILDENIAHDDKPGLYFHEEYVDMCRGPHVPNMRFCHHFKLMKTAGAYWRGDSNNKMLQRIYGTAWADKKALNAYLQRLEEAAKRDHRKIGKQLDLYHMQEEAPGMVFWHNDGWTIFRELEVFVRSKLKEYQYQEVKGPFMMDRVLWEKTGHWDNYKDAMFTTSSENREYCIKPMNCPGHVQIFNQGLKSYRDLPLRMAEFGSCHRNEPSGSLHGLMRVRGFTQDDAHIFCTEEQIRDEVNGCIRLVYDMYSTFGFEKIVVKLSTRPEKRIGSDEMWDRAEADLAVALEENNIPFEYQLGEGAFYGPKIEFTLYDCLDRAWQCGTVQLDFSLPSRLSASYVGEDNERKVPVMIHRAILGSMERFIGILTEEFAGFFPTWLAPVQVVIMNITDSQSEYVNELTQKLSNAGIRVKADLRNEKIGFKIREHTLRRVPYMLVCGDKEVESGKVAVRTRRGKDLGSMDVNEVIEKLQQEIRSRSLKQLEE
smiles,measurement,setting,value
"N[C@@H](CCC(=O)N[C@@H](CSN=O)C(=O)NCC(=O)O)C(=O)O [GSNO, S-nitrosoglutathione]","tRNA aminoacylation and posttransfer editing, [32P]tRNA TLC, after preincubation",hmtThrRS [1],the inhibitory effect of GSNO on the C409 mutant was the most prominent
same,"tRNA aminoacylation and posttransfer editing, [32P]tRNA TLC, after preincubation",hmtThrRS [2],Both activities for the four mutants were obviously inhibited after GSNO incubation
same,"tRNA aminoacylation and mischarging, [32P]tRNA TLC, after preincubation; IBP-MS",hmtThrRS [3],The resulting inhibition of both the aminoacylation and mischarging activities of hmtThrRS was dose-dependent
same,"tRNA aminoacylation and posttransfer editing, [32P]tRNA TLC, after preincubation",hmtThrRS [4],Both activities for the four mutants were obviously inhibited after GSNO incubation
same,"tRNA aminoacylation and posttransfer editing, [32P]tRNA TLC, after preincubation",hmtThrRS [5],Both activities for the four mutants were obviously inhibited after GSNO incubation
"N[C@@H](CO)C(=O)O [Ser, L-Ser]","tRNA mischarging, [32P]tRNA TLC",hmtThrRS [6],mischarging of tRNA^Thr with noncognate Ser was determined without or with H2O2 treatment
"C[C@@H](O)[C@H](N)C(=O)O [Thr, L-Thr]","tRNA aminoacylation, [32P]tRNA TLC; ATP-PPi exchange",hmtThrRS [7],The synthesis of Thr-tRNA^Thr was obviously not affected by H2O2
same,"tRNA aminoacylation, [32P]tRNA TLC",EcThrRS,aminoacylation activity of EcThrRS was assayed and compared
